From US20160251332A1, “Herbicidal Compounds” (SYNGENTA PARTICIPATIONS AG, priority 2013, published 2016)

Assays:
Type in all cases: in vivo
[1] = tested on: Zea mays; test: Post-emergence herbicidal activity, ZEAMX; conditions: Application post-emergence, 1000 g/Ha, evaluated after 13 days, scale 0-5
Experimental: (§1) Seeds of a variety of test species were sown in standard soil in pots. After 8 days cultivation (post-emergence) under controlled conditions in a glasshouse (at 24/16° C., day/night; 14 hours light; 65% humidity), the plants were sprayed with an aqueous spray solution derived from the formulation of the technical active ingredient in acetone/water (50:50) solution containing 0.5% Tween 20 (polyoxyethelyene sorbitan monolaurate, CAS RN 9005-64-5). The test plants were then grown in a glasshouse under controlled conditions (at 24/16° C., day/night; 14 hours light; 65% humidity) and watered twice daily. After 13 days, the test was evaluated (5=total damage to plant; 0=no damage to plant).

[2] = tested on: Zea mays; test: Pre-emergence herbicidal activity, ZEAMX; conditions: Application pre-emergence, 1000 g/Ha, evaluated after 13 days, scale 0-5
Experimental: as §1, with “After” for “After 8 days”, “for one day (pre-emergence)” for “(post-emergence)”

[3] = tested on: Abutilon theophrasti; test: Pre-emergence herbicidal activity, ABUTH; conditions: Application pre-emergence, 1000 g/Ha, evaluated after 13 days, scale 0-5
Experimental: as §1, with “After” for “After 8 days”, “for one day (pre-emergence)” for “(post-emergence)”

[4] = tested on: Setaria faberi; test: Post-emergence herbicidal activity, SETFA; conditions: Application post-emergence, 1000 g/Ha, evaluated after 13 days, scale 0-5
Experimental: as §1

[5] = tested on: Amaranthus retroflexus; test: Post-emergence herbicidal activity, AMARE; conditions: Application post-emergence, 1000 g/Ha, evaluated after 13 days, scale 0-5
Experimental: as §1

[6] = tested on: Abutilon theophrasti; test: Post-emergence herbicidal activity, ABUTH; conditions: Application post-emergence, 1000 g/Ha, evaluated after 13 days, scale 0-5
Experimental: as §1

[7] = tested on: Setaria faberi; test: Pre-emergence herbicidal activity, SETFA; conditions: Application pre-emergence, 1000 g/Ha, evaluated after 13 days, scale 0-5
Experimental: as §1, with “After” for “After 8 days”, “for one day (pre-emergence)” for “(post-emergence)”

[8] = tested on: Echinochloa crus-galli; test: Post-emergence herbicidal activity, ECHCG; conditions: Application post-emergence, 1000 g/Ha, evaluated after 13 days, scale 0-5
Experimental: as §1

[9] = tested on: Echinochloa crus-galli; test: Pre-emergence herbicidal activity, ECHCG; conditions: Application pre-emergence, 1000 g/Ha, evaluated after 13 days, scale 0-5
Experimental: as §1, with “After” for “After 8 days”, “for one day (pre-emergence)” for “(post-emergence)”

[10] = tested on: Amaranthus retroflexus; test: Pre-emergence herbicidal activity, AMARE; conditions: Application pre-emergence, 1000 g/Ha, evaluated after 13 days, scale 0-5
Experimental: as §1, with “After” for “After 8 days”, “for one day (pre-emergence)” for “(post-emergence)”

Row | SMILES | ZEAMX damage score [1] | ZEAMX damage score [2] | ABUTH damage score [3] | SETFA damage score [4] | AMARE damage score [5] | ABUTH damage score [6] | SETFA damage score [7] | ECHCG damage score [8] | ECHCG damage score [9] | AMARE damage score [10]
1 | Cc1ccc(-c2cnc(N3C(=O)N(C)CC3O)cc2C(F)(F)F)cn1 (centres unmarked) [Compound A20] | 4 | 3 | 5 | 5 | 5 | 5 | 5 | 5 | 5 | 5
2 | CN1CC(O)N(c2cc(C(F)(F)F)c(-c3ccc(Cl)nc3)cn2)C1=O (centres unmarked) [Compound A21] | 5 | 3 | 5 | 5 | 5 | 5 | 5 | 5 | 5 | 5
3 | CN1CC(O)N(c2cc(C(F)(F)F)c(-c3cncc(Cl)c3)cn2)C1=O (centres unmarked) [Compound A22] | 5 | 3 | 5 | 5 | 5 | 5 | 5 | 5 | 5 | 5
4 | COc1cc(-c2cnc(N3C(=O)N(C)CC3O)cc2C(F)(F)F)ccn1 (centres unmarked) [Compound A24] | 5 | 2 | 5 | 5 | 5 | 5 | 5 | 5 | 5 | 5
5 | COc1ccc(-c2cnc(N3C(=O)N(C)CC3O)cc2C(F)(F)F)c(OC)n1 (centres unmarked) [Compound A25] | 2 | 2 | 5 | 5 | 5 | 5 | 3 | 5 | 5 | 5
6 | CN1CC(O)N(c2cc(C(F)(F)F)c(-c3cnc(C#N)nc3)cn2)C1=O (centres unmarked) [Compound A27] | 3 | 1 | 5 | 3 | 5 | 5 | 2 | 5 | 3 | 5
7 | CN1CC(O)N(c2cc(C(F)(F)F)c(-c3cnn(C)c3)cn2)C1=O (centres unmarked) [Compound A28] | 5 | 3 | 5 | 5 | 5 | 5 | 4 | 5 | 5 | 5
8 | CN1CC(O)N(c2cc(C(F)(F)F)c(-c3ccncc3C#N)cn2)C1=O (centres unmarked) [Compound A29] | 4 | 3 | 5 | 5 | 5 | 5 | 5 | 5 | 5 | 5
9 | CN1CC(O)N(c2cc(C(F)(F)F)c(-c3ccc(N4CCOCC4)nc3)cn2)C1=O (centres unmarked) [Compound A31] | 2 | 0 | 2 | 5 | 5 | 5 | 2 | 4 | 0 | 2
10 | CN1CC(O)N(c2cc(C(F)(F)F)c(-c3ccc(F)nc3)cn2)C1=O (centres unmarked) [Compound A32] | 5 | 3 | 5 | 5 | 5 | 5 | 5 | 5 | 5 | 5
11 | COc1cncc(-c2cnc(N3C(=O)N(C)CC3O)cc2C(F)(F)F)c1 (centres unmarked) [Compound A33] | 4 | 2 | 5 | 5 | 5 | 5 | 3 | 5 | 4 | 5
12 | CCOC(=O)c1cncc(-c2cnc(N3C(=O)N(C)CC3O)cc2C(F)(F)F)c1 (centres unmarked) [Compound A34] | 3 | 1 | 5 | 5 | 5 | 5 | 3 | 5 | 4 | 5
13 | CC(=O)Nc1ccccc1-c1cnc(N2C(=O)N(C)CC2O)cc1C(F)(F)F (centres unmarked) [Compound A35] | 1 | 1 | 2 | 4 | 5 | 5 | 2 | 4 | 2 | 5
14 | C=Cc1cnc(N2C(=O)N(C)CC2O)cc1C(F)(F)F (centres unmarked) [Compound A41] | 2 | 2 | 4 | 5 | 5 | 5 | 4 | 5 | 4 | 5
15 | CN1CC(O)N(c2cc(C(F)(F)F)c(NC(=O)C(C)(C)C)cn2)C1=O (centres unmarked) [Compound A42] | 5 | 3 | 5 | 5 | 5 | 5 | 5 | 5 | 5 | 5
16 | CN1CC(O)N(c2cc(C(F)(F)F)c(C(=O)NC(C)(C)C)cn2)C1=O (centres unmarked) [Compound A43] | 5 | 2 | 5 | 5 | 5 | 5 | 5 | 5 | 5 | 5
17 | CN1CC(O)N(c2cc(C(F)F)ccn2)C1=O (centres unmarked) [Compound A44] | 4 | 2 | 5 | 5 | 5 | 5 | 5 | 5 | 4 | 5
18 | CN1CC(O)N(c2cc(Cl)c(C(=O)NC(C)(C)C)cn2)C1=O (centres unmarked) [Compound A45] | 5 | 3 | 5 | 5 | 5 | 5 | 5 | 5 | 5 | 5
19 | CN1CC(O)N(c2cc(C(F)(F)Cl)ccn2)C1=O (centres unmarked) [Compound A46] |  | 2 | 5 |  |  |  | 5 | 5 | 4 | 5
20 | CN1CC(O)N(c2cc(C(F)F)c(Cl)cn2)C1=O (centres unmarked) [Compound A47] |  | 0 | 4 |  |  |  | 4 | 4 | 4 | 4
21 | CN1CC(O)N(c2cc(C(F)(F)C(F)(F)F)ccn2)C1=O (centres unmarked) [Compound A48] | 3 | 2 | 5 | 5 | 5 | 5 | 5 | 5 | 4 | 5
22 | COC(C)(C)c1ccnc(N2C(=O)N(C)CC2O)c1 (centres unmarked) [Compound A49] | 3 | 2 | 5 | 5 | 5 | 5 | 5 | 5 | 5 | 5
